Measurements: patent US10065990B2, “Cyclic peptide compound, and preparation method, pharmaceutical composition and use thereof” (HANGZHOU GUANYU BIO-MEDICAL CO., LTD, priority 2013, dated 2018)
Read-outs that look alike come from different tables or passages of the source.

What was measured:
[1] = target: T1, HDAC7 (Homo sapiens, UniProt Q8WUI4); assay: HDAC biochemical activity measurement (fluorescent substrate deacetylation);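 note: fluorogenic deacetylation assay using acetyl-lysine substrate at 20 µM, enzyme and compound incubated 30 min at 37 °C, then developer added, fluorescence read at 360/460 nm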; conditions: HDAC7; 37° C. 30 minutes
T1 sequence (Q8WUI4 1-952): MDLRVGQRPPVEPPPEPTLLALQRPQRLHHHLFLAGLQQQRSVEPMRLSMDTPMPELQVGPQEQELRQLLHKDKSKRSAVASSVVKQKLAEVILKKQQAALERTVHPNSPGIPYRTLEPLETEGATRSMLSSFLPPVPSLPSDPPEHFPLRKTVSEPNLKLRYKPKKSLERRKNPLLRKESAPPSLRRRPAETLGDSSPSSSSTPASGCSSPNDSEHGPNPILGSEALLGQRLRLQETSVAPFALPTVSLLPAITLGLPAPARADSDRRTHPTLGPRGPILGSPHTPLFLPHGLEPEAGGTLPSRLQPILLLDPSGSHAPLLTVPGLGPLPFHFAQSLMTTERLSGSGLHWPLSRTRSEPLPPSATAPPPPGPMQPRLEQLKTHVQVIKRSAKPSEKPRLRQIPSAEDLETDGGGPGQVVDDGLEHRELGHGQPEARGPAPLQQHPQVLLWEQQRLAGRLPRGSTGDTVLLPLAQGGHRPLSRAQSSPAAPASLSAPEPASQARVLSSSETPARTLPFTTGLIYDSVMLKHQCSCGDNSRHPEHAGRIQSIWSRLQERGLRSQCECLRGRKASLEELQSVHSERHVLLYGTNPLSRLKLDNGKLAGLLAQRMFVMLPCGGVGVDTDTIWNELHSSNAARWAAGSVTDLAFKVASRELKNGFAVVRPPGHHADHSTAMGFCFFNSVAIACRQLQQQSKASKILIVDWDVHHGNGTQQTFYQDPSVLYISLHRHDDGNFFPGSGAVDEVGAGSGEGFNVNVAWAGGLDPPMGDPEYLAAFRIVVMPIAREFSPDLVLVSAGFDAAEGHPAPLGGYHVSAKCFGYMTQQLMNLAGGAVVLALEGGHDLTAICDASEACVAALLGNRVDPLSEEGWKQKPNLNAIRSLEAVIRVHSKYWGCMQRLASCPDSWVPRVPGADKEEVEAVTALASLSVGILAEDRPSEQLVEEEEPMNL
Protocol: The chemical activity of the compound is determined according to the degree of deacetylation inhibition of the HDAC enzyme. This experiment measured the degree of deacetylation related to tumor proliferation and metastasis of HDAC1, HDAC2, HDAC3, HDAC8, HDAC11 five subtypes HDAC enzymes. After the substrate containing an acetylated lysine side chain and HDAC enzyme are labeled with a fluorescent label, the fluorescent substrate is de acetyl. The fluorescent labeled substrate is cleaved by the enzyme, and the fluorescent substance is released, which generates 460 nm emission light under the excitation of 360 nm light.
HDAC substrate was diluted with reaction buffer to 200M (reaction concentration of 20M), the HDAC enzyme was diluted to the appropriate concentration, then added different concentrations of the test compounds and acted at 37° C. 30 minutes, and then added the same volume of 2-times concentration substrate developing solution (developer), incubated at room temperature for 15 minutes. Finally, the last reading measured with a microplate plate reader, excitation light was 360 nm, the emitted light was 460 nm, data processing software was Prime 4, and the results are shown in Table 1.

[2] = system: MOLT-4 (human acute lymphoblastic leukemia cells); assay: MTT cancer cell growth inhibition; assay type: cell-based; conditions: Homo sapiens, MOLT-4, 72 h, MTT, 72 hours incubation, read-out: GI50 Mol
Source text: (§1) MTT assay principle is yellow MTT can penetrate membrane into the cell, succinic dehydrogenase of the mitochondria in living cells can make exogenous MTT reduction of insoluble in water of blue-violet acicular formazan for crystallization and deposition in the cell, crystallization can be dissolved dimethyl sulfoxide (DMSO) solution, detected its absorbance at 490 nm/570 nm wavelength by enzyme-linked immunosorbent assay, which can reflect the number of cells.
(§2) Using DMEM+10% FBS culture medium or using 1640+10% FBS culture, respectively.
(§3) a) Cells were seeded in 96-well plates with the inoculation of 1500/well, 190 μl/hole, 37° C., 5% of CO2 incubator overnight;
(§4) b) The next day each well was added 10 μl of different drugs. The final concentration of drug was 10^−5˜10^−10M, three parallel holes; 37° C., 5% CO2 culture incubator for 72 hours incubation;
(§5) c) Per well was added 20 μl 5 mg/ml of MTT, 37° C., 5% CO2 culture incubator for 4 hours incubation;
(§6) d) The supernatant was discarded. Each well was added 100 μl of DMSO and oscillation;
(§7) e) 570 nm readings. Calculate cell viability. GI50 calculation based on the results.

[3] = system: BGC-823 (human gastric cancer cells); assay: MTT cancer cell growth inhibition; assay type: cell-based; conditions: Homo sapiens, BGC-823, 72 h, MTT, 72 hours incubation, read-out: GI50 BG
Source text: as §1, §2, §3, §4, §5, §6, §7

[4] = system: lncap (prostate cancer cells); assay: MTT cancer cell growth inhibition; assay type: cell-based; conditions: Homo sapiens, LNCaP, 72 h, MTT, 72 hours incubation, read-out: GI50 lnca
Source text: as §1, §2, §3, §4, §5, §6, §7

[5] = system: MCF-7 (human breast cancer cells); assay: MTT cancer cell growth inhibition; assay type: cell-based; conditions: Homo sapiens, MCF7, 72 h, 72 hours incubation, read-out: GI50 MCF
Source text: as §1, §2, §3, §4, §5, §6, §7

[6] = system: K562 (human leukemia cells); assay: MTT cancer cell growth inhibition; assay type: cell-based; conditions: Homo sapiens, K562, 72 h, MTT, 72 hours incubation, K562 cells; read-out: GI50 K562
Source text: as §1, §2, §3, §4, §5, §6, §7

[7] = system: KBM5-T315I (human chronic myelogenous leukemia); assay: MTT cancer cell growth inhibition; assay type: cell-based; conditions: Homo sapiens, 72 h, MTT, 72 hours incubation, KBM5-T315I cells; read-out: GI50 KBM5-T315I
Source text: as §1, §2, §3, §4, §5, §6, §7

[8] = system: U937 (human leukemia cells); assay: MTT cancer cell growth inhibition; assay type: cell-based; conditions: Homo sapiens, U-937, 72 h, MTT, 72 hours incubation, read-out: GI50 U93
Source text: as §1, §2, §3, §4, §5, §6, §7

[9] = system: KBM-5 (human chronic myelogenous leukemia); assay: MTT cancer cell growth inhibition; assay type: cell-based; conditions: Homo sapiens, KBM5, 72 h, MTT, 72 hours incubation, KBM-5 cells; read-out: GI50 KBM-5
Source text: as §1, §2, §3, §4, §5, §6, §7

[10] = system: N-87 (human gastric cancer cells); assay: MTT cancer cell growth inhibition; assay type: cell-based; conditions: Homo sapiens, 72 h, MTT, 72 hours incubation, N-87 cells; read-out: GI50 N-87
Source text: as §1, §2, §3, §4, §5, §6, §7

[11] = system: SGC-7901 (human gastric cancer cells); assay: MTT cancer cell growth inhibition; assay type: cell-based; conditions: Homo sapiens, SGC-7901, 72 h, MTT, 72 hours incubation, SGC-7901 cells; read-out: GI50 SGC-7901
Source text: as §1, §2, §3, §4, §5, §6, §7

[12] = system: A549 (human lung cancer cells); assay: MTT cancer cell growth inhibition; assay type: cell-based; conditions: Homo sapiens, A549, 72 h, MTT, 72 hours incubation, read-out: GI50 A54
Source text: as §1, §2, §3, §4, §5, §6, §7

[13] = system: Huh-7 (human hepatoma cells); assay: MTT cancer cell growth inhibition; assay type: cell-based; conditions: Homo sapiens, Huh-7, 72 h, MTT, 72 hours incubation, Huh-7 cells; read-out: GI50 Huh-7
Source text: as §1, §2, §3, §4, §5, §6, §7

[14] = system: HCC827 (human non-small cell lung cancer cells); assay: MTT cancer cell growth inhibition; assay type: cell-based; conditions: Homo sapiens, HCC827, 72 h, MTT, 72 hours incubation, HCC827 cells; read-out: GI50 HCC827
Source text: as §1, §2, §3, §4, §5, §6, §7

[15] = system: PANC-1 (Pac-1, human pancreatic cancer cells); assay: MTT cancer cell growth inhibition; assay type: cell-based; conditions: Homo sapiens, PANC-1, 72 h, MTT, 72 hours incubation, read-out: GI50 PAN
Source text: as §1, §2, §3, §4, §5, §6, §7

[16] = system: H1975 (non-small cell lung adenocarcinoma); assay: MTT cancer cell growth inhibition; assay type: cell-based; conditions: Homo sapiens, NCI-H1975, 72 h, MTT, 72 hours incubation, H1975 cells; read-out: GI50 H1975
Source text: as §1, §2, §3, §4, §5, §6, §7

[17] = system: HT1080 (human fibrosarcoma cells); assay: MTT cancer cell growth inhibition; assay type: cell-based; conditions: Homo sapiens, HT-1080, 72 h, MTT, 72 hours incubation, read-out: GI50 HT1
Source text: as §1, §2, §3, §4, §5, §6, §7

[18] = system: MDA-MB-231 (breast cancer cells); assay: MTT cancer cell growth inhibition; assay type: cell-based; conditions: Homo sapiens, MDA-MB-231, 72 h, read-out: GI50 MDA-MB-231, MTT, 72 hours incubation, MDA-MB-231 cells
Source text: as §1, §2, §3, §4, §5, §6, §7

[19] = system: DU145 (human prostate cancer cells); assay: MTT cancer cell growth inhibition; assay type: cell-based; conditions: Homo sapiens, DU-145, 72 h, MTT, 72 hours incubation, read-out: GI50 Du1
Source text: as §1, §2, §3, §4, §5, §6, §7

[20] = system: Hela (human cervical cancer cells); assay: MTT cancer cell growth inhibition; assay type: cell-based; conditions: Homo sapiens, HeLa, 72 h, MTT, 72 hours incubation, read-out: GI50 Hela
Source text: as §1, §2, §3, §4, §5, §6, §7

[21] = system: Bel-7402 (human hepatoma cells); assay: MTT cancer cell growth inhibition; assay type: cell-based; conditions: Homo sapiens, Bel-7402, 72 h, MTT, 72 hours incubation, Bel-7402 cells; read-out: GI50 Bel-7402
Source text: as §1, §2, §3, §4, §5, §6, §7

SMILES	IC50 HDAC7 [1]	GI50 ([2]; MOLT-4 cells) [nM]	GI50 ([3]; BGC-823 cells) [nM]	GI50 ([4]; lncap cells) [nM]	GI50 ([5]; MCF-7 cells) [nM]	GI50 [6] [nM]	GI50 [7] [nM]	GI50 ([8]; U937 cells) [nM]	GI50 [9] [nM]	GI50 [10] [nM]	GI50 [11] [nM]	GI50 ([12]; A549 cells) [nM]	GI50 [13] [nM]	GI50 [14] [nM]	GI50 ([15]; PANC-1 cells) [nM]	GI50 [16] [nM]	GI50 ([17]; HT1080 cells) [nM]	GI50 [18] [nM]	GI50 ([19]; DU145 cells) [nM]	GI50 [21] [nM]	other results
C/C=C1\NC(=O)c2ccc(SC)c(n2)CNC(=O)C[C@@H](/C=C/CCSC(C)=O)OC(=O)[C@H](CCCCN)NC1=O [Compound 194]	no activity	30	50	20	40	29	25	60	51	36	43	30	84	35	40	23	10	27	30	27	GI50 ([20]; Hela cells): 50 nM
C/C=C1\NC(=O)c2cc(F)cc(n2)CNC(=O)C[C@@H](/C=C/CCS)OC(=O)[C@H](Cc2ccc(O)cc2)NC1=O [Compound 129]	no activity					42	42		35	21	33		38	22		33		41		41	GI50 [2]: 60 nM; GI50 [3]: 30 nM; GI50 [4]: 70 nM; GI50 [5]: 30 nM; GI50 [8]: 10 nM; GI50 [12]: 80 nM; GI50 [15]: 50 nM; GI50 [17]: 130 nM; GI50 [19]: 30 nM; GI50 [20]: 40 nM
C/C=C1\NC(=O)c2cc(SC)cc(n2)CNC(=O)C[C@@H](/C=C/CCSC(=O)CCCC)OC(=O)[C@H](C(C)C)NC1=O [Compound 157]	no activity	20	30	50	20	23	23	20	36	36	72	20	29	37	20	35	90	26	70	83	GI50 ([20]; Hela cells): 70 nM
C/C=C1\NC(=O)c2ccc(F)c(n2)CNC(=O)C[C@@H](/C=C/CCSC(C)=O)OC(=O)[C@@H](C)NC1=O [Compound 102]	no activity					28	71		67	46	31		73	58		35		26		11	GI50 [2]: 30 nM; GI50 [3]: 30 nM; GI50 [4]: 30 nM; GI50 [5]: 30 nM; GI50 [8]: 40 nM; GI50 [12]: 50 nM; GI50 [15]: 50 nM; GI50 [17]: 50 nM; GI50 [19]: 20 nM; GI50 [20]: 30 nM
